Data as given in patent US8110544B2, “RasGAP derived peptide for selectively killing cancer cells” (Universite de Lausanne, priority 2003, dated 2012).

Tests used:
Format in all cases: cell-based, human
[1] = test system: cancer cell lines (HeLa, U2OS, MCF-7, and H-Meso1); assay: Genotoxin-induced apoptosis (pycnotic nuclei) in cancer cell lines with or without peptides; details: 20 μM peptide
Experimental: Four cancer cell lines (HeLa, U2OS, MCF-7, and H-Meso1) were plated in 6-wells plates and treated with the indicated concentrations of cisplatin, adriamycin and mitoxantrone in the absence or in the presence of either 20 μM MV-TAT48-57 Or TAT-RaSGAP317-326 peptides for 20 hours. The number of cells displaying pycnotic nucleus was then scored. The results correspond to the mean±standard deviation of three independent determinations. Asterisks denote significant differences between the genotoxin-treated cells incubated with TAT-RaSGAP317-326 and those left untreated or incubated with the HIV-TAT48-57 peptide (**, p<0.01; ***, p<0.001).
Apoptosis was determined by scoring the number of cells displaying pycnotic nuclei. Nuclei of live cells were labeled with Hoechst 33342 (10 μg/ml final concentration) for about 5 minutes and the cells were then analyzed (at least 400 cells per condition) using an inverted Leica DMIRB microscope equipped with fluorescence and transmitted light optics. Assessment of apoptosis was performed one day after the transfection or treatment of the cells. In experiment involving transfected cells, pEGFP-C1 was included in the transfection solution to label the transfected cells with GFP. In this case, the extent of apoptosis was assessed in the transfected cells only. […]

[2] = test system: HeLa, U2OS, H-Meso1, MCF-7, HaCat and HUV-EC-C cell lines; assay: Cellular uptake of FITC-labelled peptide (epifluorescence of live cells); details: FITC-labelled peptide 20 μM
Experimental: The following cell lines (HeLa, U2OS, H-Meso1, MCF-7, HaCat and HUV-EC-C) were incubated 3 hours at 37° C., 5% CO2 in culture medium with 20 μM FITC-labelled TAT-RasGAP317-326 peptide and then washed three times with culture medium.
Fluorescein isothiocyanate (FITC)-labeling was performed on the sequence β-alanine-[…] (SEQ ID NO: 16) whose side chain Fmoc-protected amino acids were Arg(bpf), Lys(Boc), Gln(Trt), Trp(Boc), Thr(tBu), Asn(Trt), and Asp(OtBu). The peptide was synthesized stepwise on 0.2 mmol Rink Amide AM resin using Fmoc chemistry. The synthesis was monitored by ninhydrin test. After the coupling of β-alanine, the Fmoc group was removed with 20% piperidine in dimethylformamide (DMF). At this stage, a fluorescein group was conjugated to the N-terminus of peptide with FITC (5 fold excess over the substitution of the resin in 4 ml DMF and 1 ml N-ethyldiisopropylamine) to form the fluorescein-derivated peptide.
If a plasmid encoding amino acid 317-326 of RasGAP has the ability to enhance the ability of a drug to kill cancer cells, a synthetic peptide corresponding to the […] should also display this activity provided that it can penetrate cells. […] We first assessed the sensitivity of the cancer cell lines towards increasing concentrations of the three genotoxins (data not shown). […]

[3] = test system: NFκB activity; assay: NFκB firefly luciferase reporter assay in U2OS cells; details: 20 hours
Experimental: U2OS Cells (1×10^5) were plated in 6 well plates and transfected with 1 μg of a firefly luciferase reporter plasmid for NFκB activity and 0.1 μg of a plasmid encoding the Renilla luciferase. The cells were treated one day later with the indicated concentrations of cisplatin in the absence or in the presence of 20 μM HV-TAT48-57 or TAT-RaSGAP317-326 peptides during 20 hours. The data represent the firefly luciferase activity normalized to the Renilla luciferase activity and expressed as fold increase of the basal NFκB activity obtained in control untreated cells. The results correspond to the mean±standard deviation of three independent determinations. Asterisks denote significant differences between the indicated conditions (**, p<0.01; ***, p<0.001).
(§1) U2OS cells were transfected with 1 μg of a firefly luciferase reporter plasmid for NFκB activity, 0.1 μg of a plasmid encoding the Renilla luciferase, 0.5 μg of a GFP-expressing plasmid (to label the transfected cells), 1 μg of a plasmid encoding IκBαΔN2 that inhibit the NFκB pathway or with 1 μg an empty pcDNA3 vector. The cells were incubated one day later with increasing concentrations of cisplatin in the presence of 20 μM HIV-TAT48-57 or 20 μM TAT-RasGAP317-326 for an additional 20 hour period. The cells were then lysed and the NFκB activity assessed as described in panel A, except that the results were expressed as fold increase of the NFκB activity detected in cells incubated with the control HV-TAT48-57 peptide.
Luciferase assay was performed using the Dual-Luciferase® Reporter Assay from Promega (cat. no E1910). […] The firefly luciferase activity was recorded by mixing 20 μl of the lysate with 25 μl of the LARII Reagent and the Renilla luciferase activity was recorded by adding to the previous mix 25 μl of the Stop & Glo Reagent. For each measurement, light emission was quantified during 12 seconds using a Lumat LB 9501 luminometer (Berthold Technologies, Zurich, Switzerland).

[4] = test system: JNK; assay: Western blot of phospho-JNK in U2OS cells; details: 20 μM peptide
Experimental: (§2) U2OS cells (2×10^5) were plated in 6 well plates and treated for the indicated periods of time with the indicated combinations of the HW-TAT48-57 or TAT-RasGAP317-326 peptides (at a 20 μM concentration) and cisplatin (at a 30 μM concentration). Positive controls for JNK and p38 activation were obtained following stimulation of the cells with 1 μg/ml anisomycine during 3 hours and with 0.5 M sorbitol for 30 min, respectively. The quantitations depicted under the Western blots were performed on the 12-hour bands and normalized against the positive controls. The results correspond to the mean±standard deviation of three independent experiments. […]

[5] = test system: p38 MAPKs; assay: Western blot of phospho-p38 in U2OS cells; details: 20 μM peptide
Experimental: as §2

[6] = test system: U2OS cells; assay: Apoptosis of transfected (GFP-positive) U2OS cells with or without IκBαΔN2; details: 20 μM peptide, IkBαΔN2 expressed, 20 hours
Experimental: as §1
Alternatively, the number of GFP-positive cells displaying pycnotic nucleus was determined. The results correspond to the mean±standard deviation of three independent determinations.
Apoptosis was determined by scoring the number of cells displaying pycnotic nuclei. Nuclei of live cells were labeled with Hoechst 33342 (10 μg/ml final concentration) for about 5 minutes and the cells were then analyzed (at least 400 cells per condition) using an inverted Leica DMIRB microscope equipped with fluorescence and transmitted light optics. […] In this case, the extent of apoptosis was assessed in the transfected cells only.

## GRKKRRQRRRGGWMWVTNLRTD [TAT-RasGAP317-326]
[1]; 20 hours, sub-lethal genotoxin concentrations
  enhancement of the ability of cisplatin, adriamycin and mitoxantrone to kill cancer cell lines: enhanced the ability of cisplatin, adriamycin, and mitoxantrone to kill the tested cancer cell lines
[1]; cancer cell lines
  apoptosis induced in control conditions (no genotoxin): did not, or only marginally, induce apoptosis in control conditions
[2]; 3 hours
  difference in translocation between non cancer cells and cancer cells: No difference in translocation
[2]; 3 hours at 37° C., four tumor and two non cancer cell lines
  cellular uptake of the peptide: efficiently entered all these cell lines
[3]; 20 μM peptide or cisplatin
  NFkB activation in U2OS cells (single agent): activated
[3]; U2OS cells, cisplatin plus 20 μM peptide
  NFkB activation with both cisplatin and peptide: additive activation of NFkB
[4]
  activation of JNK pathway by peptide alone: neither the control HIV-TAT48-57 peptide nor the TAT-RasGAP317-326 peptide activated these MAPK pathways
[5]
  activation of p38 MAPK pathway by peptide alone: neither the control HIV-TAT48-57 peptide nor the TAT-RasGAP317-326 peptide activated these MAPK pathways
[6]
  potency to enhance cisplatin killing of U2OS cells in presence of NFkB inhibitor: unaffected by the NFkB inhibitor
